Experimental data reported in patent publication US20250109127A1, “METHODS OF USE OF PHENOXYPROPYLAMINE COMPOUNDS TO TREAT DEPRESSION” (Minerva Neurosciences, Inc., priority 2013, published 2025).
Values joined by “and” are separate entries in the source; they are usually repeats but may differ in a detail not shown here. Identical values can stand only once. Counter-ions that a name gives are not always drawn.

System: dopamine release in the rat prefrontal cortex
Assay: Microdialysis: dopamine release in prefrontal cortex after I.P. administration
Type: in vivo
Conditions: for Dopamine release, individual animals / Dopamine release, MEAN: 0.3 mg/kg I.P.; for Dopamine release, individual animals: one column per animal R#11,12,18,23,29,30,17,24, hydrochloride; for Dopamine release, MEAN / DOPAMINE (% of respective basal) MEAN: n = 8; for DOPAMINE (% of respective basal) MEAN: SON-117 group 0.1 mg/kg I.P.
Experimental: The aim of the study was to evaluate, using microdialysis, the effects of an intraperitoneal (I.P.) administration in rats of three different doses of SON-117 on dopamine and its metabolites, serotonin and its metabolite (5-HIAA), and norepinephrine levels in prefrontal cortex.
Thirty-two adult male Wistar rats were used for the whole study (4 groups of eight animals planned for the study, Table 1).
Surgery was performed on rats weighing about 300 g at the beginning of the experiments. Rats were anaesthetized with Ketamine (50 mg/kg) & Xylazine (15 mg/kg) by intramuscular administration. The animals were placed in a stereotaxic apparatus in the flat-skull position at a constant setting of −3.3 mm between ear bars and the incisor bar. The animals were treated with a local anesthesic (xylocaine 1%, Astra Zeneca) and an analgesic (Temgesic, from Schering Plough, 0.05 mg/kg, s.c.). A rostrocaudal midline incision was made with a lancet to expose the dorsal skull surface. The “stereotaxic zero” was defined by the Bregma in accordance with Paxinos and Watson's atlas (1986). A hole was drilled in the skull with a drill and the meninges were pierced with a sterile needle to implant a CMA12 guide cannula which later received the dialysis probe.
Coordinates used for implanting guide cannula in prefrontal cortex from Bregma were anteroposterior 3.7 mm, mediolateral 0.8 mm, and dorsoventral −2 mm (top of the probe was at −5 mm). The guide cannula was fixed to the skull with two stainless steel screws (1.88 mm outside diameter) anchored. An application of dental cement was added. A plastic collar allowed each animal to be tethered to a Swivel assembly of the CMA 120 awake animal system. Following surgery, rats were kept in individual cages and allowed to recover for a minimum of 3-5 days before the experimentation. The rats were handled and put in plastic bowl for 10 min at least every day to habituate the animals to their new environment for the dialysis. An I.P. administration with saline was also performed every day.
Dialysis probes (CMA12/3 mm, membrane, 20 kD cut-off, Carnegie Medicine, Stockholm, Sweden), were carefully washed before inserting into the guide cannula. The wash was performed with the artificial cerebrospinal fluid (aCSF) medium (NaCl 147 mM, KCl 2.7 mM, CaCl2 1.2 mM, MgCl2 0.85 mM) at room temperature. The dialysis system was then equilibrated at 20° C. at a perfusion rate of 1 μl/min with a Carnegie pump (CMA100). All catheters (FEP tubing, internal volume of 1.2 μl/10 cm, and tubing adaptors) used for microdialysis were treated in the same conditions.
The probes duly prepared were inserted into the guide cannula and the CMA120 Swivel assembly secured to the animal using a plastic collar. Flow through the dialysis probe with aCSF was maintained at a rate of 1 μl/min during the whole experimentation. The first four fractions (corresponding to 2 hours) were discarded to avoid the effects of parenchymal disturbance and to ensure that an approximate steady-state level was reached. Fractions were then collected over a period of 8.5 h during which time the animals remained quiet. The dialysates were automatically collected with an autosampler (microfraction collector CMA 140, Carnegie Medicin) and stored at −80° C. until analysis. […] Perfusion was then maintained for 7 hours with aCSF. The dialysates (30 μl) were collected into 300 μl vials, transferred into dry ice and then kept frozen (−80° C.) until analysis. Frozen samples were shipped to a partner for analysis. At the end of the microdialysis study, a PBS with colored ink was perfused through the probe in order to visualize the dialyzed area.
Catecholamine assay: Concentrations of dopamine, DOPAC, HVA, 5-HIAA, 5-HT, and norepinephrin were determined for each sample by HPLC coupled with electrochemical detection.

[1] = T-30 min-T0 (before administration)
[2] = T-1 h 30-T-1 h (before administration)
[3] = T-1 h-T-30 min (before administration)

What does the source list for `Cc1nnc(-c2cc3c(OC[C@@H](O)CN4CCC(c5ccc(Cl)c(Cl)c5)CC4)cccc3o2)o1` [SON-117, (S)-1-(4-(3,4-dichlorophenyl)piperidino)-3-(2-(5-methyl-1,3,4-oxadiazol-2-yl)benzo(b)furan-4-yloxy)-2-propanol hydrochloride]?
Dopamine release, individual animals (T5 h 30-T6 h): 1190.31 % of respective basal and 66.72 % of respective basal and 285.31 % of respective basal and 29.48 % of respective basal and 247.57 % of respective basal and 111.91 % of respective basal and 52.03 % of respective basal and 128.48 % of respective basal; Dopamine release, MEAN (T5 h-T5 h 30): 263.19 % of respective basal; Dopamine release, individual animals (T5 h-T5 h 30): 611.23 % of respective basal and 37.39 % of respective basal and 1036.44 % of respective basal and 30.12 % of respective basal and 108.05 % of respective basal and 81.56 % of respective basal and 80.36 % of respective basal and 120.37 % of respective basal; Dopamine release, MEAN (T6 h 30-T7 h): 297.55 % of respective basal; Dopamine release, individual animals (T6 h 30-T7 h): 331.87 % of respective basal and 230.42 % of respective basal and 224.57 % of respective basal and 11.34 % of respective basal and 202.06 % of respective basal and 117.28 % of respective basal; Dopamine release, MEAN (T6 h-T6 h 30): 267.65 % of respective basal; Dopamine release, individual animals (T6 h-T6 h 30): 879.91 % of respective basal and 122.45 % of respective basal and 101.84 % of respective basal and 10.68 % of respective basal and 188.10 % of respective basal and 103.08 % of respective basal and 135.89 % of respective basal and 599.24 % of respective basal; Dopamine release, MEAN [1]: 100.22 % of respective basal; Dopamine release, MEAN [2]: 104.26 % of respective basal; Dopamine release, MEAN [3]: 98.66 % of respective basal; dopamine levels, increase (not statistically significant) (SON-117 0.1 mg/kg I.P., from 4.5 h to 7 h): 353%; dopamine levels, increase (not statistically significant) (SON-117 0.1 mg/kg I.P., from T1.5 h and 2.5 h): 287%; dopamine levels, increase (not statistically significant) (SON-117 0.3 mg/kg I.P., from 5.5 h to 7 h): 298%; dopamine levels, slight increase (not statistically significant) (SON-117 3 mg/kg IP, at 1.5 h): 169%; dopamine levels, slight increase, max. (not statistically significant) (SON-117 3 mg/kg IP, from 6 h to 7 h): 167%; release of dopamine, trend (SON-117 0.1 and 0.3 mg/kg, from 5.5 h): trend for an increased release; dopamine, difference to the citalopram group (two-way ANOVA) (SON-117 at the three doses tested, in function of time): no significant differences; DOPAMINE (% of respective basal) MEAN (T0-T30 min): 133.37 % of respective basal; DOPAMINE (% of respective basal) MEAN (T30-T1 h): 103.29 % of respective basal; DOPAMINE (% of respective basal) MEAN (T1 h 30-T2 h): 151.81 % of respective basal; DOPAMINE (% of respective basal) MEAN (T1 h-T1 h 30): 123.06 % of respective basal; DOPAMINE (% of respective basal) MEAN (T2 h 30-T3 h): 138.45 % of respective basal; DOPAMINE (% of respective basal) MEAN (T2 h-T2 h 30): 286.96 % of respective basal; DOPAMINE (% of respective basal) MEAN (T3 h 30-T4 h): 155.83 % of respective basal; DOPAMINE (% of respective basal) MEAN (T3 h-T3 h 30): 150.01 % of respective basal; DOPAMINE (% of respective basal) MEAN (T4 h 30-T5 h): 240.84 % of respective basal; DOPAMINE (% of respective basal) MEAN (T4 h-T4 h 30): 215.81 % of respective basal; DOPAMINE (% of respective basal) MEAN (T5 h 30-T6 h): 188.21 % of respective basal; DOPAMINE (% of respective basal) MEAN (T5 h-T5 h 30): 183.94 % of respective basal; DOPAMINE (% of respective basal) MEAN (T6 h 30-T7 h): 353.25 % of respective basal; DOPAMINE (% of respective basal) MEAN (T6 h-T6 h 30): 226.43 % of respective basal; DOPAMINE (% of respective basal) MEAN [1]: 105.18 % of respective basal; DOPAMINE (% of respective basal) MEAN [2]: 100.9 % of respective basal; DOPAMINE (% of respective basal) MEAN [3]: 91.46 % of respective basal
